From US12497359B2, “Acrylamide derivatives” (NRG Therapeutics Ltd, priority 2020, dated 2025)
≈ marks a conversion by molar mass, not a printed value.

Legend:
FaSSIF solubility = assay type: physicochemical; conditions: kinetic from dmso stock, Fasted state simulated intestinal fluid, 2 hr at 25° C.
Procedure: Test compounds were prepared as 10 mM stocks in DMSO and 15 μl samples transferred in duplicate into 1.5 mL glass flat bottom vials (BioTech Solutions). Fasted state simulated intestinal fluid (FaSSIF) or PBS (pH 7.4) was added to each vial to final volume of 500 μl. One PTFE encapsulated stir stick (V&P Scientific) was placed in each vial before sealing with PTFE/SIL plugs (BioTech Solutions). Vials were shaken at 1100 rpm for 2 hr at 25° C. Samples were then filtered through MultiScreen Solvinert filter plates (Millipore) via vacuum filtration. Aliquots of filtrate (5 μl) plus 5 μl DMSO were diluted in 490 μl 50% acetonitrile in water containing internal standard. The filtrate was analysed and quantified against a standard of known concentration using LC-MS/MS. Solubility values of the test compound and control compound were calculated as follows: [Sample]=(Area ratiosample*INJ VOL STD*DFsample*[STD])/(Area ratio STD*INJ VOLsample).

[1] = Hepatocyte clearance assay, human; assay type: in vitro ADME; conditions: cryopreserved primary human hepatocytes, average value from two experiments, read-out: Human heps intrinsic clearance (CLint)
Procedure: In vitro clearance studies were performed in primary rat and human hepatocytes (BioIVT). Vials of cryopreserved rat or human hepatocytes were thawed in a 37° C. water bath for 2 min. Cells were transferred into thawing medium (Williams' Medium E containing 30% Percoll, 1× GlutaMAX-1, 15 mM HEPES, 5% fetal bovine serum (FBS), 4 μg/ml insulin, 1 μM dexamethasone), centrifuged at 100 g for 10 min then resuspended in culture medium (Leibovitz's L-15 Medium) at a concentration of 0.5×10^6 viable cells/mL (number of viable cells assessed using AO/PI staining). Hepatocytes (198 μL) were transferred into wells of a 96-well non-coated plate and placed in a 37° C. incubator for 10 min. Test compound solutions were prepared from 10 mM stocks in DMSO, diluted to 100 μM in 50% (v/v in water) acetonitrile. Test compound samples (2 μl) were added to each well of hepatocytes and incubated at 37° C. Samples (25 μl) were collected at t=0, 15, 30, […] and 120 min, mixed with 6 volumes (150 μl) of acetonitrile containing internal standard (100 nM alprazolam, 200 nM caffeine and 100 nM tolbutamide), vortexed for 5 min and centrifuged for 45 min at 3220 g. An aliquot of supernatant (100 μL) was diluted with 100 μL ultra-pure water, and the mixture was used for LC/MS/MS analysis. All incubations were performed in duplicate. Peak areas were determined from extracted ion chromatograms. The slope value, k, was determined by linear regression of the natural logarithm of the remaining percentage of the parent drug vs. incubation time curve. The in vitro half-life (in vitro t1/2) was determined from the slope value: in vitro t1/2=0.693/k. Conversion of the in vitro t1/2 (in min) into the in vitro intrinsic clearance (in vitro CLint, in μL/min/1×10^6 cells) was done using the following equation (mean of duplicate determinations): • in vitro CLint=kV/N • V=incubation volume (0.2 mL) • N=number of hepatocytes per well (0.1×10^6 cells). Microsomal Clearance Assay

mPTP = mPTP human platelet mitochondria membrane potential flow cytometry assay; assay type: cell-based; conditions: stimulated human platelets
Procedure: The mPTP cell based assay was performed using a mitochondria membrane potential flow cytometry assay in stimulated human platelets. Simulation of platelets results in the rapid influx of Ca^2+ across the platelet membrane. The Ca^2+ is then sequestered by mitochondria until the threshold for mPTP opening is reached, at which point the pore opens and the mitochondrial membrane potential is dissipated. Changes in mitochondria membrane potential due to mPTP opening can be quantified in live platelets using standard mitochondrial membrane potential dyes e.g. 3,3′-dihexyloxacarbocyanine Iodide; DiOC6 (3), enabling pharmacological characterisation of mPTP inhibitors.
Fresh human blood (20 ml) was collected from consented donors into 3.2% sodium citrate. Platelets were isolated by centrifugation at 200 g for 20 min at room temperature, then the platelet rich plasma layer transferred to a fresh tube. Prostaglandin 12 is added to the platelets at a final concentration of 20 ng/ml. After centrifugation at 640 g for 10 min, the platelet rich pellet was resuspended in 4 ml HEPES assay buffer (137 mM NaCl, 2.7 mM KCl, 11.9 mM NaHCO3, 0.42 mM NaH2PO4, 1 mM MgCl2, 5.5 mM glucose, 0.1% bovine serum albumin, 10 mM HEPES adjusted to pH 7.4) and stored on ice.
Test compounds were prepared from 10 mM stocks in DMSO and serially diluted in assay buffer containing 0.4% DMSO and 25 μl transferred into a 96 well plate. Platelets were loaded with the mitochondrial membrane potential dye DiOC6 (3) (3,3′-dihexyloxacarbocyanine Iodide; Invitrogen) at 200 nM for 30 min, then 50 μl plated into each well of the 96 well plate containing diluted test compound and incubated for 15 min. Control wells included DMSO (0.1% final concentration) only or 5 μM cyclosporin A. Platelets were then stimulation with the addition of assay buffer (25 μl) containing CaCl2, alpha thrombin and Convulxin to achieve a final concentrations of 2 mM, 0.017 U/ml and 0.167 μg/ml respectively and incubated for 14 min. The reaction was stopped by the addition of 25 μl 15 mM EDTA in assay buffer. The mitochondrial membrane potential across the population of platelets in each well was then quantified by flow cytometry using a Guava easyCyte 5 Benchtop Flow Cytometer with 3000 events per well. The percentage of platelets with a depolarised mitochondrial membrane potential was calculated for each well. A pIC50 for each compound was then calculated using a standard four parameter curve fit model (GraphPad Prism).

| Compound | solubility at 2 h (FaSSIF solubility) [µM] | hepatocyte CLint at 1 µM [1] [µL/min/1e6 cells] | mPTP Human platelets pIC50 (mPTP) |
| --- | --- | --- | --- |
| C[C@H]1Cc2ccccc2[C@@H]1NC(=O)/C=C/c1ccc2cn[nH]c2c1 (single isomer, unassigned) [Example 14c] | 8 (≈ 2.54 µg/mL) | 40.4 | 6.8 |
| C[C@@H]1COc2ccccc2[C@@H]1NC(=O)/C=C/c1ccc2cn[nH]c2c1 (single isomer, unassigned) [Example 15d, (E)-3-(1H-indazol-6-yl)-N-(3-methylchroman-4-yl)acrylamide] | 7 (≈ 2.33 µg/mL) | < 3 |  |
| O=C(/C=C/c1ccc2cn[nH]c2c1)N[C@@H]1CCc2ccccc21 [Example 3, (R,E)-N-(2,3-dihydro-1H-inden-1-yl)-3-(1H-indazol-6-yl)acrylamide] | 7 (≈ 2.12 µg/mL) |  | 7.3 |
| COCc1ccccc1NC(=O)/C=C/c1ccc2cn[nH]c2c1 [Example 29, (E)-3-(1H-indazol-6-yl)-N-(2-(methoxymethyl)phenyl)acrylamide] | 73 (≈ 22.4 µg/mL) | < 3 |  |
